Experimental data published in patent US8575091B1, “Amylin analogues and pharmaceutical compositions thereof” (Novo Nordisk A/S, priority 2012, dated 2013).
Numbered stars: 1 amine (or outer) side, 2 acyl side, 3 side chain; on linkers, the order of the positions; unused ones are H or OH. Bridge positions count the residues as written; N and C are the ends. Peptide text beside a SMILES is read from it. * marks the point of attachment. C20 diacid = O=C(O)CCCCCCCCCCCCCCCCCCC(=O)*; γGlu = O=C(O)[C@H](CCC(=O)[*:2])N[*:1]

Columns and labels:
[1] = target: T1, human amylin receptor (amylin 3(a) receptor: human calcitonin receptor + RAMP-3) (Homo sapiens, UniProt O60896+P30988); experiment: Assay (II)a functional assay, human amylin receptor (CRE luciferase, BHK cells); format: cell-based; details: Table 6; human functional selectivity (hCTR EC50 / hAmylin-R EC50)
T1 construct: expressed in transfected cells
T1 sequence (P30988 25-474): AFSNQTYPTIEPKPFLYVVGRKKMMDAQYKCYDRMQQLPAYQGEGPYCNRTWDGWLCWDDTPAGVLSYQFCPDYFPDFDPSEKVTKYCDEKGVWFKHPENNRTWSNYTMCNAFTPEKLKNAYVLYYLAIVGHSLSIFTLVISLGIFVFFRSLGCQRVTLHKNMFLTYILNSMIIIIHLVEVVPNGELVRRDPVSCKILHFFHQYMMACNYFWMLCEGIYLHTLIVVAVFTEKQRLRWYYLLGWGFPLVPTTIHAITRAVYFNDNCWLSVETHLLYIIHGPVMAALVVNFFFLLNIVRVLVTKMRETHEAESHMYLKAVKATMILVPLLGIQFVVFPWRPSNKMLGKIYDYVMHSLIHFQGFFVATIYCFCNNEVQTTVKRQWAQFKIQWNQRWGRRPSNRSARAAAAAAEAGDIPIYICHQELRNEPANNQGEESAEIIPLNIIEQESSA
T1 sequence (O60896 24-148 partner): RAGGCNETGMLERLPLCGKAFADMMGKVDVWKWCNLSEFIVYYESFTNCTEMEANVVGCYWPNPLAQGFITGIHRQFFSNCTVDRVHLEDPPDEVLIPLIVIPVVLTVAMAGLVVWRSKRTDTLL

human amylin receptor = target: T2, human amylin receptor (Homo sapiens, UniProt O60896+P30988); experiment: Assay (V) binding to the human amylin receptor (SPA, 125I-rat amylin)
T2 construct: expressed in transfected cells
T2 sequence (P30988 25-474): T1 sequence (P30988 25-474)
T2 sequence (O60896 24-148 partner): T1 sequence (O60896 24-148 partner)
Method: The binding assay was performed using scintillation proximity assay (SPA) beads (RPNQ0001) from PerkinElmer and cell membranes from the Amylin 3(a)/CRE-luc cells (as described in Assay (II)) were used. Membranes were prepared in the following way; the cells were rinsed with PBS and incubated with Versene for approximately 5 min before harvesting. The cells were flushed with PBS and the cell-suspension was centrifuged for 5 min at 1000 rpm. […] The resulting pellet was resuspended in buffer 2 and protein concentration was measured (BCA protein Assay, Pierce). The homogenate was kept cold during the whole procedure. The membranes were kept at −80° C. until use. The assay was performed in a 384 well Optiplate (PerkinElmer) in a total volume of 40 ul. Membranes were mixed with SPA beads. Final concentration of membranes 35 ng/μL final and SPA beads was 0.05 mg/well. Test-compounds were dissolved in DMSO and further diluted in assay buffer (50 mM Hepes, pH 7.4, 1 mM CaCl2, 5 mM MgCl2, 0.1% OA and 0.02% Tween20). […] Samples were analyzed on TopCounter™ (Packard). The IC50 was calculated using (one site binding competition analysis) GraphPad Prism5 as a measure of receptor affinity.

[2] = human binding ratio, included for comparison

Row | Ratio hCT/hAmylin funct. [1] | Ratio hCT/hAmylin binding (human amylin receptor; [2]) | Ratio hCT/hAmylin binding (human amylin receptor; Table 7b, human calcitonin receptor binding IC50 divided by human amylin receptor binding IC50) | Ratio hCT/hAmylin binding (human amylin receptor; Table 7c, human calcitonin receptor binding IC50 divided by human amylin receptor binding IC50) | SMILES
1 | 4.0 | 2.3 |  |  | CC[C@H](C)[C@H](NC(=O)[C@H](C)NC(=O)CNC(=O)[C@H](Cc1ccccc1)NC(=O)[C@H](CC(N)=O)NC(=O)[C@@H]1CCCN1C(=O)[C@H](CO)NC(=O)[C@H](CO)NC(=O)[C@H](Cc1c[nH]cn1)NC(=O)[C@H](CCCNC(=N)N)NC(=O)[C@H](CC(C)C)NC(=O)[C@H](Cc1ccccc1)NC(=O)[C@H](CCC(=O)O)NC(=O)[C@H](C)NC(=O)[C@H](CC(C)C)NC(=O)[C@H](CCCNC(=N)N)NC(=O)[C@H](CCC(N)=O)NC(=O)[C@@H](NC(=O)[C@H](C)NC(=O)[C@@H]1CSSC[C@H](NC(=O)[C@H](CCCCN)NC(=O)CC[C@H](NC(=O)CCCCCCCCCCCCCCCCCCC(=O)O)C(=O)O)C(=O)N[C@@H](CC(N)=O)C(=O)N[C@@H]([C@@H](C)O)C(=O)N[C@@H](C)C(=O)N[C@@H]([C@@H](C)O)C(=O)N1)[C@@H](C)O)C(=O)N1CCC[C@H]1C(=O)N[C@@H](CO)C(=O)N1CCC[C@H]1C(=O)N[C@H](C(=O)N[C@@H](CC(N)=O)C(=O)N[C@H](C(=O)NCC(=O)N[C@@H](CO)C(=O)N[C@@H](CC(N)=O)C(=O)N[C@H](C(=O)N[C@@H](Cc1ccc(O)cc1)C(N)=O)[C@@H](C)O)C(C)C)[C@@H](C)O [Example 37] ({C20 diacid-γGlu}-KCNTATCATQRLAEFLRHSSPNFGAIPSPTNVGSNTY-NH2; disulfide 2-7)
2 |  | 29.0 | 29.0 | 29.0 | CC[C@H](C)[C@H](NC(=O)[C@H](C)NC(=O)CNC(=O)[C@H](Cc1ccccc1)NC(=O)[C@H](CC(N)=O)NC(=O)[C@@H]1CCCN1C(=O)[C@H](CO)NC(=O)[C@H](CO)NC(=O)[C@H](Cc1c[nH]cn1)NC(=O)[C@H](CCCNC(=N)N)NC(=O)[C@H](CC(C)C)NC(=O)[C@H](Cc1ccccc1)NC(=O)[C@H](CC(N)=O)NC(=O)[C@H](C)NC(=O)[C@H](CC(C)C)NC(=O)[C@H](CCCNC(=N)N)NC(=O)[C@H](CCC(N)=O)NC(=O)[C@@H](NC(=O)[C@H](C)NC(=O)[C@@H]1CSSC[C@H](NC(=O)[C@H](CCCCN)NC(=O)CC[C@H](NC(=O)CCCCCCCCCCCCCCCCCCC(=O)O)C(=O)O)C(=O)N[C@@H](CC(N)=O)C(=O)N[C@@H]([C@@H](C)O)C(=O)N[C@@H](C)C(=O)N[C@@H]([C@@H](C)O)C(=O)N1)[C@@H](C)O)C(=O)N1CCC[C@H]1C(=O)N[C@@H](CO)C(=O)N[C@@H](CO)C(=O)N[C@H](C(=O)N[C@@H](CC(N)=O)C(=O)N[C@H](C(=O)NCC(=O)N[C@@H](CCCNC(=N)N)C(=O)N[C@@H](CC(N)=O)C(=O)N[C@H](C(=O)N[C@@H](Cc1ccc(O)cc1)C(N)=O)[C@@H](C)O)C(C)C)[C@@H](C)O [Example 39] ({C20 diacid-γGlu}-KCNTATCATQRLANFLRHSSPNFGAIPSSTNVGRNTY-NH2; disulfide 2-7)
